Test results taken from patent publication US9783578B2, “Immunosuppression modulating compounds” (AURIGENE DISCOVERY TECHNOLOGIES LIMITED, priority 2010, dated 2017).
Converted amounts (≈) assume the structure as drawn. Like-named read-outs stand apart in the source and are kept apart here. Where a SMILES comes first, the peptide text is derived from it. Bridges are numbered along the chain shown (N, C = ends). Roman numbers before positions name the chains, in order.

How the values were obtained:
Organisms (not named) = assay: organism not typed
Description: Required quantity of the compound was weighed and dissolved in water/dimethyl sulphoxide/suitable solvent to yield 1 mg/ml stock solution. The stock solution was diluted in MHB/CAMHB to yield 8 μg/ml or 64 μg/ml or 512 μg/ml solution as per requirement. Serial two fold dilutions of the compound was prepared using MHB/CAMHB in 96 well microtitre trays using a multichannel pipette. Organisms were grown in MHB/CAMHB for 4-5 hrs at 35±2° C., 110±10 rpm. Optical density (OD) of the cultures is adjusted to 625 nm which corresponds to 0.5 Mc Farland standard (1-2×10^8 cfu/ml) and further diluted to achieve a final inoculum of […]×10^4 cfu/well. Broth, compound and organism controls were set up. Microdilution trays were incubated at 35±2° C. for 16-20 hours in an ambient air incubator. After the incubation period, growth of organism in the wells was detected by unaided eye facilitated by a viewing device.

4T1 cells = conditions: 3 mg/kg s.c.; during dosing period
Description: On day 0, 4T1 cells grown in RPMI 1640 containing 10% FBS at 70 to 75% confluency were harvested and 0.1×10^6 cells per animal were injected along with matrigel orthotopically to mammary fat pad. […] Vehicle control group of mice received only saline. Each group consisted of ten animals. Body weight and clinical signs were recorded daily. Tumour volume was measured by slide callipers.

B16F10 cells = conditions: 5 mg/kg s.c.; during the period of dosing
Description: C57/Black6 female mice (Aurigene, Bangalore, India) aged 6 to 8 weeks were used for the experiment. Animals were acclimatized for a week in the experimental room before conducting the experiment.
On day 0, B16F10 cells grown in DMEM containing 10% FBS at 70 to 75% confluency were harvested and 1×10^6 cells per animal were injected to mice subcutaneously on the right flank region. […] Vehicle control group of mice received only saline. Each group consisted of ten animals. Body weight and clinical signs were recorded daily.

in vitro = assay: in vitro
Description: Briefly, overnight fasted rats were sacrificed by cervical dislocation; kidneys were removed, washed with chilled saline and decapsulated. The renal tissue was sliced and a 5% homogenate was made in buffer containing 2 mM Tris-HCl, 50 mM mannitol pH 7.1 using 10 strokes in a Porter-Elvelhemhomogeniser. The homogenate was centrifuged at 250×g for 5 min and the pellet was re-homogenized (four strokes) in the same buffer. Both the homogenate preparations were pooled (an aliquot of sample was taken for enzyme assays), allowed to remain at 4° C. for 15 min and filtered using a nylon mesh cloth. To this, a 50% PEG solution in water was added to make a final concentration of 10% PEG, stirred for 15 min continuously at 4° C. and centrifuged at 7500×g for 10 min. The pellet was discarded and the supernatant was spun at 12,000×g for 10 min. This pellet was discarded and the supernatant was centrifuged at 27,000×g for 40 min. To the pellet, 15 ml suspension buffer containing 10 mM Tris-HCl and 300 mM mannitol, pH 7.1 was added, centrifuged at 27,000×g for 40 min. The pellet was washed twice with the same suspension buffer and finally suspended 1 ml of the same buffer using a syringe fitted with a 26-gauge needle.
1. Microsomal protein working solution was prepared as mentioned above (0.55 mg/ml) in 50 mM potassium phosphate buffer (pH 7.4)
2. Test compound (compound 69) working stock solutions at concentration of 4 μM was prepared in 50 mM potassium phosphate buffer (pH 7.4)
3. 125 μL of test compound (compound 69) from step 2 diluted with 100 μL of buffer and 275 μl of microsomal protein solution from step 2 was pre-incubated separately for 10 mins at 37° C.
4. Both the test solution from step 3 was mixed together and the reaction mixture was aliquoted at various time intervals and processed by SPE method.
Kidney brush border stability of the compounds was calculated as the amount of substrate metabolized by the incubation with kidney brush border microsomes. Initial amount of substrate (concentration at T0) was measured and KBBM stability was assessed by the disappearance of compound at various time points based on the change in analyte to internal standard peak height ratio using LCMS/MS (API 4000, AB Sciex). Results are expressed as mean±SD of test compound remaining at any given time point (Table VI).

[1] = system: mouse splenocytes inhibited by MDA-MB-231 tumour cells expressing PD-L1; assay: Mouse splenocyte proliferation rescue, CFSE method; assay type: cell-based; conditions: screened at 100 nm concentration and compared with 100 nm Comp 8
Description: Mouse splenocytes harvested from 6-8 weeks old C57 BL6 mice.; RPMI 1640 (GIBCO, Cat #11875); DMEM with high glucose (GIBCO, Cat #D6429); Fetal Bovine Serum [Hyclone, Cat #SH30071.03]; Pencilin (10000 unit/ml)-Streptomycin(10,000 μg/ml) Liquid (GIBCO, Cat #15140-122); MEM Sodium Pyruvate solution 100 mM (100×), Liquid (GIBCO, Cat #11360); Nonessential amino acid (GIBCO, Cat #11140); L-Glutamine (GIBCO, Cat #25030); Anti-CD3 antibody (eBiosciences—16-0032); Anti-CD28 antibody (eBiosciences—16-0281); ACK lysis buffer (1 mL) (GIBCO, Cat #-A10492); Histopaque (density—1.083 gm/ml) (SIGMA 10831); Trypan blue solution (SIGMA-T8154); Hemacytometer (Bright line-SIGMA Z359629); FACS Buffer (PBS/0.1% BSA): Phosphate Buffered Saline (PBS) pH 7.2 (HiMedia TS1006) with 0.1% Bovine Serum Albumin (BSA) (SIGMA A7050) and sodium azide (SIGMA 08591); 5 mM stock solution of CFSE: CFSE stock solution was prepared by diluting lyophilized CFSE with 180 μL of Di methyl Sulfoxide (DMSO C2H6SO, SIGMA-D-5879) and aliquoted in to tubes for further use. Working concentrations were titrated from 10 μM to 1 μM. (eBioscience—650850-85); 96-well format ELISA plates (Corning CLS3390); BD FACS caliber (E6016).
Splenocytes harvested in a 50 ml falcon tube by mashing spleen in a 40 μm cell strainer were further treated with 1 ml ACK lysis buffer for 5 mins at RT. After washing with 9 ml of RPMI complete media, cells re-suspended in 3 ml of 1×PBS in a 15 ml tube. 3 ml of histopaque was added very carefully to the bottom of the tube without disturbing overlaying splenocyte suspension. Spin the tube at 800×g for 20 mins at RT. Opaque layer of lymphocytes is collected carefully without disturbing/mixing any of the layers. Cells washed twice with cold 1×PBS followed by total cell counting using trypan blue exclusion method and used further for cell based assays.
Tumour cells (MDMBA231) are cultured and maintained in high glucose complete DMEM media. 1×10^5 tumour cells were plated in 96 well plates along with required conc. of PD1 derived peptide and allowed to adhere at 37° C. for 4 hrs. 1×10^6 cells/ml of harvested splenocytes are treated with 5 μM of CFSE in pre warmed 1×PBS/0.1% BSA solution for 10 mins at 37° C. Excess CFSE was quenched using 5 volumes of ice-cold culture media to the cells and incubated on ice for 5 mins. CFSE labeled splenocytes were further given three washes with ice cold complete DMEM media. CFSE labeled 1×10^5 splenocytes added to above wells containing tumours cells and test compounds. Splenocytes were stimulated with anti-CD3 and anti-CD28 antibody (1 μg/ml each) and the co-culture was further incubated for 72 hrs at 37° C. with 5% CO2. Cells were harvested and washed thrice with ice cold FACS buffer and % proliferation was analyzed using a FACS caliber with 488 nm excitation and 521 nm emission filters. Each experimental condition was carried out in triplicates and each experiment at least carried out three times. Splenocyte proliferation was analyzed using cell quest FACS program and fold induction was calculated by normalizing individual values to percent background proliferation. Fold induction=Percent splenocyte proliferation/percent background proliferation Stimulated splenocytes: Splenocytes+anti-CD3/CD28 stimulation Background proliferation: Splenocytes+anti-CD3/CD28+Tumour Percent Proliferation rescue={(compound percent proliferation−Background percent proliferation)/(Stimulated percent proliferation−Background percent proliferation)}*100.

[2] = rat, kidney brush border membrane (KBBM) preparation, pH 7.4

## CC[C@H](C)[C@H](NC(=O)[C@H](CCC(N)=O)NC(=O)[C@H](C)NC(=O)[C@H](CCCCN)NC(=O)[C@@H]1CCCN1C(=O)[C@H](C)NC(=O)[C@H](CC(C)C)NC(=O)[C@H](CCC(N)=O)NC(=O)[C@@H](NC(=O)[C@@H](NC(=O)[C@H](CCCNC(=N)N)NC(=O)[C@H](Cc1ccccc1)NC(=O)C(CCCCNC(=O)[C@H](Cc1ccccc1)NC(=O)[C@H](CO)NC(=O)[C@H](CCC(=O)O)NC(=O)[C@H](CO)NC(=O)[C@@H](NC(=O)[C@H](CC(N)=O)NC(=O)[C@@H](N)CO)[C@@H](C)O)NC(=O)[C@H](Cc1ccccc1)NC(=O)[C@H](CO)NC(=O)[C@H](CCC(=O)O)NC(=O)[C@H](CO)NC(=O)[C@@H](NC(=O)[C@H](CC(N)=O)NC(=O)[C@@H](N)CO)[C@@H](C)O)C(C)C)[C@@H](C)O)C(=O)N[C@@H](CCCCN)C(=O)N[C@@H](CCC(=O)O)C(N)=O (stereo partly shown) [Compound 8]
Organisms (not named); broth microdilution, 16-20 hours at 35±2° C.
  MIC: > 32 µg/mL
4T1 cells
  Body weight: no body weight reduction
B16F10 cells
  Body weight: no body weight reduction
  Clinical signs: no clinical signs

## CC[C@H](C)[C@H](NC(=O)[C@H](CCCCN)NC(=O)[C@H](C)NC(=O)[C@H](CCCCN)NC(=O)[C@@H]1CCCN1C(=O)[C@H](Cc1c[nH]cn1)NC(=O)[C@H](CC(C)C)NC(=O)[C@H](CCC(N)=O)NC(=O)[C@@H](NC(=O)[C@@H](NC(=O)[C@H](CCC(N)=O)NC(=O)[C@H](Cc1ccccc1)NC(=O)[C@H](CCCCNC(=O)[C@H](CC(C)C)NC(=O)[C@H](CC(=O)O)NC(=O)[C@H](CCC(=O)O)NC(=O)[C@H](CO)NC(=O)[C@H](Cc1c[nH]c2ccccc12)NC(=O)[C@H](CC(N)=O)NC(=O)[C@@H](N)CO)NC(=O)[C@H](CC(C)C)NC(=O)[C@H](CC(=O)O)NC(=O)[C@H](CCC(=O)O)NC(=O)[C@H](CO)NC(=O)[C@H](Cc1c[nH]c2ccccc12)NC(=O)[C@H](CC(N)=O)NC(=O)[C@@H](N)CO)[C@@H](C)CC)[C@@H](C)CC)C(=O)N[C@@H](CCC(=O)O)C(=O)N[C@@H](CCC(=O)O)C(N)=O [Compound 69] (I: H-SNWSEDLKFQIIQLHPKAKIEE-NH2 / II: H-SNWSEDL; amide I:8-II:C)
In vitro; 0 min
  RKBBM % compound remaining: 100%
In vitro; [2]
  remaining at 10 min, 1 μM: 100%
  remaining at 0.5 h, 1 μM: 98%
  remaining at 1 h, 1 μM: 81%
[1]
  Percent rescue for various compounds in mouse splenocyte proliferation CFSE based assay: 48%

## O=C(O)c1cn(C2CC2)c2cc(N3CCNCC3)c(F)cc2c1=O [ciprofloxacin]
Organisms (not named)
  MIC: 0.007 µg/mL (≈ 0.0211 µM)

## C[C@H]1COc2c(N3CCN(C)CC3)c(F)cc3c(=O)c(C(=O)O)cn1c23 [levofloxacin]
Organisms (not named)
  MIC: 0.015 µg/mL (≈ 0.0415 µM)

## Biotin-Ahx-EKIQAKPAYWNLVK(KDTQNS)DTQNS-NH2 [Compound 61]
[1]
  Percent rescue for various compounds in mouse splenocyte proliferation CFSE based assay: 67%

## Biotin-Ahx-sntsesfk(sntsesf)frvtqlapkaqike-NH2 [Compound 60]
[1]
  Percent rescue for various compounds in mouse splenocyte proliferation CFSE based assay: 14.9%

## CGAISLAPKAQIKE-NH2 [Compound 5]
[1]
  Percent rescue for various compounds in mouse splenocyte proliferation CFSE based assay: 68%

## EDRSQPGQDCR-NH2 [Compound 4]
[1]
  Percent rescue for various compounds in mouse splenocyte proliferation CFSE based assay: 74.7%

## FRVTQLAPKAQIKE-NH2 [Compound 43]
[1]
  Percent rescue for various compounds in mouse splenocyte proliferation CFSE based assay: 66%

## SNTSESF-NH2 [Compound 1]
[1]
  Percent rescue for various compounds in mouse splenocyte proliferation CFSE based assay: 96.5%

## SNTSESFFRVTQLAPKAQIKE-NH2 [Compound 26]
[1]
  Percent rescue for various compounds in mouse splenocyte proliferation CFSE based assay: 86.6%

## sntsesfk(sntsesf)frvtqlapkaqike-NH2 [Compound 13]
[1]; control peptide
  Percent rescue in mouse splenocyte proliferation CFSE based assay (cell printed with nM, control peptide): 0-12 nM-
